Results published in patent publication US8962600B2, “Neuroprotective compounds and their use” (The Medical College of Wisconsin, Inc., priority 2009, dated 2015).

How the values were obtained:
GFAP = GFAP expression in substantia nigra (astroglial activation), immunostaining; assay type: in vivo, C57BL/6 mice; conditions: diapocynin 300 mg/kg gavage, 1 day pre-treatment + 4 days co-treatment with MPTP 25 mg/kg i.p.
Method: (§1) For checking inflammatory and oxidative stress markers, mice were gavaged diapocynin (300 mg/kg dose) 1 day before MPTP treatment (pre-treatment) and continued for another 4 days of co-treatment with MPTP. In the sub-acute MPTP regimen, MPTP (25 mg/kg) was injected intraperitoneally once per day from day 2 to day 7. Control mice received saline at the same dosage.
(§2) Four days after MPTP treatment, mice were perfused with 4% paraformaldehyde (PFA) and post-fixed with PFA and 30% sucrose, respectively. Next, fixed brains were cut into 30 μm sections and kept in 30% sucrose-ethylene glycol solutions at −20° C. On the day of staining, sections were rinsed with phosphate-buffered saline (PBS) and incubated with different primary antibodies, including anti-IBA-1 (DAKO, Carpinteria, Calif.), anti-GFAP (Millipore, Billerica, Mass.), anti-iNOS (Santa Cruz Biotechnology, Santa Cruz, Calif.), anti-3NT (Millipore), anti-4HNE (R&D Systems, Minneapolis, Minn.) and anti-gp91phox (Santa Cruz Biotechnology) for overnight at 4° C. Appropriate secondary antibodies (Alexa Fluor 488, 594, or 555 from Invitrogen, Carlsbad, Calif.) were used followed by incubation with 10 μg/ml Hoechst 33342 for 5 min at room temperature to stain the nucleus. Sections were viewed under a Nikon inverted fluorescence microscope (model TE-2000U; Nikon, Tokyo, Japan). […]

3-nitrotyrosine (3-NT) = experiment: 3-nitrotyrosine expression in substantia nigra, Western blot and immunostaining; assay type: in vivo, C57BL/6 mice
Method: as §1, §2

[1] = tested on: inducible nitric oxide synthase (iNOS/NOS2); experiment: iNOS expression in substantia nigra, Western blot and immunostaining; assay type: in vivo, C57BL/6 mice; conditions: MPTP-treated mice that also received diapocynin 300 mg/kg gavage
Method: as §1
Four days after MPTP treatment, mice were perfused with 4% paraformaldehyde (PFA) and post-fixed with PFA and 30% sucrose, respectively. Next, fixed brains were cut into 30 μm sections and kept in 30% sucrose-ethylene glycol solutions at −20° C. On the day of staining, sections were rinsed with phosphate-buffered saline (PBS) and incubated with different primary antibodies, including anti-IBA-1 (DAKO, Carpinteria, Calif.), anti-GFAP (Millipore, Billerica, Mass.), anti-iNOS (Santa Cruz Biotechnology, Santa Cruz, Calif.), anti-3NT (Millipore), anti-4HNE (R&D Systems, Minneapolis, Minn.) and anti-gp91phox (Santa Cruz Biotechnology) for overnight at 4° C. Appropriate secondary antibodies (Alexa Fluor 488, 594, or 555 from Invitrogen, Carlsbad, Calif.) were used followed by incubation with 10 μg/ml Hoechst 33342 for 5 min at room temperature to stain the nucleus. Sections were viewed under a Nikon inverted fluorescence microscope (model TE-2000U; Nikon, Tokyo, Japan). Images were captured with a SPOT digital camera (Diagnostic Instruments, Inc., Sterling Heights, Mich.).
Mice were sacrificed 4 days or 7 days after MPTP treatment and substantia nigra tissue was dissected out. Brain lysates containing equal amounts of protein were loaded in each lane and separated on a 10 to 12% SDS polyacrylamide gel, as described previously (48). After the separation, proteins were transferred to a nitrocellulose membrane and nonspecific binding sites were blocked by treating with Li-Cor Odyssey blocking buffer (Li-Cor Biosciences, Lincoln, Nebr.). The membranes were then incubated with different primary antibodies including anti-TH (Millipore), anti-iNOS (Calbiochem), anti-3NT (Millipore) and anti-4HNE (R&D Systems). […]

IL-1β = experiment: LPS-induced IL-1β release in primary microglia, LUMINEX immunoassay; assay type: cell-based, mouse; conditions: diapocynin 10 μM, LPS 24 hr
Method: Primary microglia were obtained from 1-2 day old C57/b16 mouse pups. Upon collection, whole brains were kept in ice-cold DMEM-F12 medium containing 10% FBS, 1× sodium pyruvate, 1× NEAAs, 100 units pen/strep, and Q. After collection, the brains were placed in 0.25% trypsin-EDTA and incubated at 37° C., with gentle shaking every 5-10 min. After 30 min, the trypsin was removed, and the brains are washed in warmed medium twice. After washing, medium was added to the brains, and the brains were homogenized using gentle pipetting, starting with a 25 ml pipette and moving to smaller pipette tips as the brains were broken up. When the brains were sufficiently homogenized to a single-cell suspension, they were filtered with a 70 μm nylon filter, which allowed microglia and astrocytes to be collected. The resultant cell suspension was plated in T-75 flasks and allowed to grow for 12-14 days at 37° C., 5% CO2. […]
Cytokine levels of BV2 and microglial cells treated with diapocynin were determined by LUMINEX® multiplex immunoassay. […]
Cytokine standards and controls were adjusted to 40 μl volume and the LUMINEX® Samples were run on a LUMINEX® 200 Total System and analyzed with Multiplex Analysis—LUMINEX® Software (Invitrogen, Carlsbad, Calif.).

COc1cc(C(C)=O)cc(-c2cc(C(C)=O)cc(OC)c2O)c1O [diapocynin]
GFAP protein expression in substantia nigra (GFAP): inhibition
MPTP-induced expression of 3-NT in substantia nigra (3-nitrotyrosine (3-NT); diapocynin 300 mg/kg gavage, MPTP 25 mg/kg i.p.): attenuated
TH positive cells colocalized with 3-NT (3-nitrotyrosine (3-NT); double-labeling, MPTP-treated mice that also received diapocynin 300 mg/kg): very few
colocalized cells of iNOS and GFAP in substantia nigra [1]: very few colocalized cells
colocalized cells of iNOS and IBA-1 in substantia nigra [1]: very few colocalized cells
staining of iNOS in substantia nigra [1]: marked decrease
blocking LPS-induced release of IL-1β (IL-1β): very effective
